Experimental findings from patent US20240376144A9, “NEUROACTIVE STEROIDS S[…] POSITION 10 WITH A CYCLIC GROUP FOR USE IN THE TREATMENT OF CNS DISORDERS” (Sage Therapeutics, Inc., priority 2018, published 2024) are described below.

By IC50 is commonly meant the concentration that inhibits the measured activity by half.

Each structure is given as a SMILES string. A value given as a limit tells only on which side of the number the result lay.

In this assay the target is GABAA receptor ([35S]-TBPS binding, rat brain cortical membranes). Description: Steroid inhibition of [35S]-TBPS binding. To be noted: 3 nM [35S]-TBPS, in the presence of 5 mM GABA. The procedure:
[^35S]-t-Butylbicyclophosphorothionate (TBPS) binding assays using rat brain cortical membranes in the presence of 5 mM GABA has been described (Gee et al., J. Pharmacol. Exp. Ther. 1987, 241, 346-353; Hawkinson et al., Mol. Pharmacol. 1994, 46, 977-985; Lewin, A. H et al., Mol. Pharmacol. 1989, 35, 189-194).
Briefly, cortices are rapidly removed following decapitation of carbon dioxide-anesthetized Sprague-Dawley rats (200-250 g). The cortices are homogenized in 10 volumes of ice-cold 0.32 M sucrose using a glass/teflon homogenizer and centrifuged at 1500×g for 10 min at 4° C. The resultant supernatants are centrifuged at 10,000×g for 20 min at 4° C. to obtain the P2 pellets. The P2 pellets are resuspended in 200 mM NaCl/50 mM Na—K phosphate pH 7.4 buffer and centrifuged at 10,000×g for 10 min at 4° C. This washing procedure is repeated twice and the pellets are resuspended in 10 volumes of buffer. Aliquots ([…]) of the membrane suspensions are incubated with 3 nM [^35S]-TBPS and […] aliquots of test drug dissolved in dimethyl sulfoxide (DMSO) (final 0.5%) in the presence of 5 mM GABA. The incubation is brought to a final volume of 1.0 mL with buffer. Nonspecific binding is determined in the presence of […] and ranged from 15 to 25%. Following a 90 min incubation at room temp, the assays are terminated by filtration through glass fiber filters (Schleicher and Schuell No. 32) using a cell harvester (Brandel) and rinsed three times with ice-cold buffer. Filter bound radioactivity is measured by liquid scintillation spectrometry. Non-linear curve fitting of the overall data for each drug averaged for each concentration is done using Prism (GraphPad). […] The concentration of test compound producing 50% inhibition (IC50) of specific binding and the maximal extent of inhibition (Imax) are determined for the individual experiments with the same model used for the overall data and then the means±SEM.s of the individual experiments are calculated.
Various compounds are or can be screened to determine their potential as modulators of [^35S]-TBPS binding in vitro. These assays are or can be performed in accordance with the above
In Table 2 below, A indicates a TBPS IC50 (μM)<0.1 μM, B indicates a TBPS IC50 (μM) of 0.1 μM to <1.0 μM, C indicates a TBPS IC50 (μM) of 1 μM to <10.0 μM, D means≥10 μM.
On to `C[C@@]1(O)CC[C@@]2(C3CC3)[C@H](CC[C@H]3[C@@H]4CC[C@H](C(=O)Cn5cc(C#N)cn5)[C@@]4(C)CC[C@@H]32)C1` [Compound A11, 1-(2-((3R,5R,8S,9S,10R,13S,14S,17S)-10-cyclopropyl-3-hydroxy-3,13-dimethylhexadecahydro-1H-cyclopenta[a]phenanthren-17-yl)-2-oxoethyl)-1H-pyrazole-4-carbonitrile], for which the IC50 was less than 0.1 µM.

Turning to `CCOC[C@@]1(O)CC[C@@]2(C3CC3)[C@H](CC[C@H]3[C@@H]4CC[C@H](C(=O)Cn5ccc(C#N)n5)[C@@]4(C)CC[C@@H]32)C1` [Compound 6, 1-(2-((3R,5R,8S,9S,10R,13S,14S,17S)-10-cyclopropyl-3-(ethoxymethyl)-3-hydroxy-13-methylhexadecahydro-1H-cyclopenta[a]phenanthren-17-yl)-2-oxoethyl)-1H-pyrazole-3-carbonitrile], the half-maximal inhibitory concentration (IC50) is less than 0.1 µM.

On to `COC[C@@]1(O)CC[C@@]2(C3CC3)[C@H](CC[C@H]3[C@@H]4CC[C@H](C(=O)Cn5cc(C#N)cn5)[C@@]4(C)CC[C@@H]32)C1` [Compound 8.2b, 1-(2-((3R,5R,8S,9S,10R,13S,14S,17S)-10-cyclopropyl-3-hydroxy-3-(methoxymethyl)-13-methylhexadecahydro-1H-cyclopenta[a]phenanthren-17-yl)-2-oxoethyl)-1H-pyrazole-4-carbonitrile], for which the concentration for half-maximal inhibition (IC50) was less than 0.1 µM.

Turning to `CC(=O)[C@H]1CC[C@H]2[C@@H]3CC[C@@H]4C[C@](C)(O)CC[C@]4(C4CC4)[C@H]3CC[C@]12C` [Compound A9, 1-((3R,5R,8S,9S,10R,13S,14S,17S)-10-cyclopropyl-3-hydroxy-3,13-dimethylhexadecahydro-1H-cyclopenta[a]phenanthren-17-yl)ethan-1-one], the IC50 was less than 0.1 µM.

`CCOC[C@@]1(O)CC[C@@]2(C3CC3)[C@H](CC[C@H]3[C@@H]4CC[C@H](C(C)=O)[C@@]4(C)CC[C@@H]32)C1` [Compound 4.12, 1-((3R,5R,8S,9S,10R,13S,14S,17S)-10-cyclopropyl-3-(ethoxymethyl)-3-hydroxy-13-methylhexadecahydro-1H-cyclopenta[a]phenanthren-17-yl)ethan-1-one]: the half-inhibitory concentration (IC50) was less than 0.1 µM.

With `CCOC[C@@]1(O)CC[C@@]2(C3CC3)[C@H](CC[C@H]3[C@@H]4CC[C@H](C(=O)Cn5cc(C#N)cn5)[C@@]4(C)CC[C@@H]32)C1` [Compound 5.2, 1-(2-((3R,5R,8S,9S,10R,13S,14S,17S)-10-cyclopropyl-3-(ethoxymethyl)-3-hydroxy-13-methylhexadecahydro-1H-cyclopenta[a]phenanthren-17-yl)-2-oxoethyl)-1H-pyrazole-4-carbonitrile], the IC50 is less than 0.1 µM.

For the compound `COC[C@@]1(O)CC[C@@]2(C3CC3)[C@H](CC[C@H]3[C@@H]4CC[C@H](C(C)=O)[C@@]4(C)CC[C@@H]32)C1` [Compound 7.4, 1-((3R,5R,8S,9S,10R,13S,14S,17S)-10-cyclopropyl-3-hydroxy-3-(methoxymethyl)-13-methylhexadecahydro-1H-cyclopenta[a]phenanthren-17-yl)ethan-1-one], the IC50 is less than 0.1 µM.
